Assay results taken from patent US4925861A, “Carboxystyrene derivatives and drugs containing them as effective ingredients” (Mitsubishi Kasei Corporation, priority 1987, dated 1990).

How the values were obtained:
[1] = test system: SRS extracted from guinea pig lung; test: in vitro SRS antagonistic activity (contraction of isolated guinea pig ileum); assay type: cell-based; settings: Cavia porcellus, concentration reducing the control contraction (one unit of SRS) of guinea pig ileum by 50%, Tyrode's solution, 37° C., mepyramine and atropine present, read-out: Anti-SRS Activity (Minimal Effective Concentration)
Experimental: The terminal ileum was taken from a male Hartley guinea pig (200 to 450 g) and the lumen was washed. The ileum was set in 5 ml of a tissue bath containing Tyrode's solution: NaCl 136 mM, KCl 2.7 mM, NaHCO3 11.9 mM, MgCl2 1.05 mM, CaCl2 1.8 mM, NaH2 PO4 0.4 mM, and glucose 5.6 mM. The temperature in the bath was kept at 37° C. and the bath was aerated by 95% oxygen/5% carbon dioxide. The buffer solution also contained 10^-7 g/ml mepyramine and 5×10^-8 g/ml atropine in order to prevent the contraction caused by histamine and acetylcholine. Isometric measurement was done by an […] transducer (TD-112S, NIPPON KODEN, Japan) and change of tension in gram was recorded in a recticorder (RTG-4124, NIPPON KODEN, Japan). A tension of 0.5 g was passively loaded on the ileum. Thus, the contraction response of the ileum to SRS extracted from guinea pig lung was observed. The tonic contraction corresponding to one unit of SRS which corresponded to 5 ng of histamine was used as control. Varying concentrations of each compound to be tested were added to the tissue bath. The concentration of each compound to be tested which reduced the contraction of the control by 50%, IC50, was shown as a minimal effective concentration in M in Table 3.

[2] = target: Phospholipase A2 from Porcine Pancreas (Sus scrofa, UniProt P00592); test: in vitro phospholipase inhibiting activity (DPybPC fluorescence); settings: pH 8, read-out: Phospholipase A2 Inhibition (%)
Chain of Phospholipase A2 from Porcine Pancreas (P00592 23-146): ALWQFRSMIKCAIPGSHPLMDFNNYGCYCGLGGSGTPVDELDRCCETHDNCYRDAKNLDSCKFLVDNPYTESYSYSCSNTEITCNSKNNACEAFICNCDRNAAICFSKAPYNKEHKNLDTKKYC
Experimental: In 2.4 ml of 5 mM tris(hydroxymethyl)aminomethane hydrochloride buffer (pH 8.0) containing 0.1M sodium chloride and 5 mM calcium chloride, 0.3 ml of a phospholipase A2 solution from Naja mocambique or Porcine pancreas (Sigma) in a final concentration of 0.014 units per 0.01 μg per ml was preincubated with 0.03 ml of an inhibitor at 25° C. for 15 minutes. A synthetic substrate DPybPC, 1,2-bis(4-(l-pyreno)butyryl)-syn-glycero-3-phosphorylcholine (0.3 ml, final concentration: 2 μM) was added and incubation was continued for 30 minutes. The reaction was terminated by addition of hydrochloric acid (1N, 0.5 ml), the fluorescence intensity was measured (Ex. 332 nm; Em. 382 nm) to calculate the activity of the phospholipase A2. The enzymes, synthetic substrate and inhibitor used were dissolved or diluted in the buffer.

[3] = Acute toxicity, oral, mice; settings: mouse, in vivo, suspension in 1% tragacanth, ddy male mice, observed for 7 days
Excerpt: A suspension of the compound according to the present invention in 1% tragacanth solution was orally administered to a group of 4 to 5 ddy male mice of 6 week old.

CCCc1csc(C=Cc2cccc(C(=O)O)c2)n1 [Compound 2]
IC50 [1]: 0.02 µM

CC(C)c1csc(C=Cc2cccc(C(=O)NCC3(C(=O)O)CCCCC3)c2)n1 [Compound 22, 3-(N-(3-(2-(4-isopropyl-2-thiazolyl))ethenyl)benzoyl)amino-2-spiro-l'-cyclohexanepropionic acid]
inhibition at 10 µM [2]: 74%

CC(C)(CNC(=O)c1cccc(C=Cc2nc3ccccc3s2)c1)C(=O)O [Compound 7]
LD50 at 168 h [3]: > 700 mg/kg
IC50 [1]: 0.05 µM

O=C(O)c1cccc(C=Cc2ccc3ccccc3n2)c1 [Compound 3]
IC50 [1]: 0.05 µM

O=C(O)CCCNC(=O)c1cccc(C=Cc2nc3ccccc3s2)c1 [Compound 6, 4-(N-(3-(2-(2-benzthiazolyl))ethenyl)benzoyl)aminobutyric acid]
IC50 [1]: 10 µM

CC(C)c1csc(C=Cc2cccc(C(=O)O)c2)n1 [Compound 5, 3-(2-(4-isopropyl-2-thiazolyl))ethenylbenzoic acid]
IC50 [1]: 0.05 µM

O=C(O)c1cccc(C=Cc2nc3ccccc3s2)c1 [Compound 1, 3-(2-(2-benzthiazolyl))ethenylbenzoic acid]
IC50 [1]: 0.2 µM

CCCc1csc(C=Cc2cccc(C(=O)NCC(CC)(CC)C(=O)O)c2)n1 [Compound 19, 3-(N-(3-(2-(4-propyl-2-thiazolyl))ethenyl)benzoyl)amino-2,2-diethylpropionic acid]
LD50 at 168 h [3]: > 1000 mg/kg
